Laboratory results as given in ChEMBL document CHEMBL1157112, “Discovery of anti-inflammatory clinical candidate E6201, inspired from resorcylic lactone LL-Z1640-2, III” (Bioorg Med Chem Lett, 2010).

Legend:
THP-1 = test: Antiinflammatory activity in human THP1 cells assessed as inhibition of LPS-induced TNFalpha production by PLAP reporter assay; assay type: functional, cell-based
[1] = Oral bioavailability in mouse; assay type: ADME, organism-based; conditions: in vivo
Mus musculus [2] = test: Antiarthritic activity in po dosed BALB/c mouse collagen antibody induced arthritis model assessed as inhibition of increase of arthritis score administered qd for 2 days after collagen antibody challenge measured after 2 days; assay type: functional; conditions: 48 h
[3] = Toxicity in po dosed BALB/c mouse collagen antibody induced arthritis model assessed as tolerated dose; assay type: organism-based; conditions: in vivo
Mus musculus [4] = species: Mus musculus; test: Ratio of ED50 for BALB/c mouse collagen antibody induced arthritis model to tolerated dose for BALB/c mouse collagen antibody induced arthritis model; assay type: functional
[5] = Antiinflammatory activity in human B164 cells assessed as inhibition of LPS-induced Actin production by PLAP reporter assay; assay type: functional

SMILES | IC50 (THP-1) | bioavailability [1] | ED50 (Mus musculus [2]) | MTD [3] | Ratio (Mus musculus [4]) | Activity [5]
CCCNc1cc(O)c2c(c1)/C=C/C[C@H](O)[C@H](O)C(=O)/C=C\[C@@H](C)[C@H](C)OC2=O | 26 nM | – | – | – | – | –
C[C@@H]1/C=C\C(=O)[C@@H](O)[C@@H](O)C/C=C/c2cc(N(C)C)cc(O)c2C(=O)O[C@H]1C | 437 nM | 21% | 15 mg/kg | 60 mg/kg | 4 | –
C[C@@H]1/C=C\C(=O)[C@@H](O)[C@@H](O)C/C=C/c2cc(N3CCNCC3)cc(O)c2C(=O)O[C@H]1C | 351 nM | – | – | – | – | –
Cc1nc2c3c(c(O)cc2n1C)C(=O)O[C@@H](C)[C@H](C)/C=C\C(=O)[C@@H](O)[C@@H](O)C/C=C/3 | 108 nM | – | 10 mg/kg | < 10 mg/kg | 1 | >10 µM
C[C@@H]1/C=C\C(=O)[C@@H](O)[C@@H](O)C/C=C/c2cc(NCc3ccccc3)cc(O)c2C(=O)O[C@H]1C | 1250 nM | – | – | – | – | –
C[C@@H]1/C=C\C(=O)[C@@H](O)[C@@H](O)C/C=C/c2cc(N)cc(O)c2C(=O)O[C@H]1C | 360 nM | 49% | – | – | – | –
C[C@@H]1/C=C\C(=O)[C@@H](O)[C@@H](O)C/C=C/c2cc(N3CCOCC3)cc(O)c2C(=O)O[C@H]1C | 129 nM | 48% | – | – | – | –
C[C@@H]1/C=C\C(=O)[C@@H](O)[C@@H](O)C/C=C/c2cc(NCCO)cc(O)c2C(=O)O[C@H]1C | 71 nM | – | – | – | – | –
CNc1cc(O)c2c(c1)/C=C/C[C@H](O)[C@H](O)C(=O)/C=C\[C@@H](C)[C@H](C)OC2=O | 85 nM | 29% | 5 mg/kg | > 30 mg/kg | 6 | –
CCn1cnc2c3c(c(O)cc21)C(=O)O[C@@H](C)[C@H](C)/C=C\C(=O)[C@@H](O)[C@@H](O)C/C=C/3 | 43 nM | – | 10 mg/kg | < 10 mg/kg | 1 | >10 µM
CCN(CC)c1cc(O)c2c(c1)/C=C/C[C@H](O)[C@H](O)C(=O)/C=C\[C@@H](C)[C@H](C)OC2=O | 2070 nM | – | – | – | – | –
C[C@@H]1/C=C\C(=O)[C@@H](O)[C@@H](O)C/C=C/c2c(c(O)cc3c2ncn3C)C(=O)O[C@H]1C | 23 nM | 49% | 5 mg/kg | < 5 mg/kg | 1 | >10 µM
CCNc1cc(O)c2c(c1)/C=C/C[C@H](O)[C@H](O)C(=O)/C=C\[C@@H](C)[C@H](C)OC2=O [E-6201] | 56 nM | 12% | 5 mg/kg | > 30 mg/kg | 3 | –
COc1ccc2c(c1)c(CC(=O)O)c(C)n2C(=O)c1ccc(Cl)cc1 [INDOMETHACIN] | – | – | 1 mg/kg | 3 mg/kg | 3 | –
C[C@]12C=CC(=O)C=C1CC[C@@H]1[C@@H]2[C@@H](O)C[C@@]2(C)[C@H]1CC[C@]2(O)C(=O)CO [PREDNISOLONE] | – | – | 3 mg/kg | 10 mg/kg | 3 | –
